How the values were obtained:
OR2AT4 [1] = target: T1, OR2AT4 (Homo sapiens, UniProt A6NND4); assay: CRE-luciferase reporter activity assay in 293 cells stably expressing OR2AT4; assay type: cell-based; set-up: GeneScript (pcDNA3.1-Hygro for GNAL); settings: synthetic odorants 400 µM, 4 hours, clone 293-OR2AT4-Golf-clone#2
T1 sequence (A6NND4 1-320): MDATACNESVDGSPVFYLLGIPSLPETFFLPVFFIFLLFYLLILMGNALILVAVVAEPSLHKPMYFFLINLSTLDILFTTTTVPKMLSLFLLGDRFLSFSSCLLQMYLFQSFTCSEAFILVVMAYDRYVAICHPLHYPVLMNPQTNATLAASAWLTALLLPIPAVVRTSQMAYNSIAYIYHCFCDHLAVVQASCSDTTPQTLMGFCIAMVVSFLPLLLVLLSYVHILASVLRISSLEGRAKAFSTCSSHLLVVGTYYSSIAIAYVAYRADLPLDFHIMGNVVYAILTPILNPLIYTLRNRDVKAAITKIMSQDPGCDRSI
Source text: • Figure 1. Generation of a 293 clone that stably expresses the OR2AT4 receptor. The 293-OR2AT4-Golf transfectant was generated by means of calcium phosphate cotransfection into 293 cells of the expression plasmids for the OR2AT4 receptor (NM_001005285, pCMV6-Entry-OR2AT4-Neo; Origene) and for the Golf subunit of G proteins, generated by means of subcloning the hGNAL gene (NM_001261443.1) into the expression plasmid (pcDNA3.1-Hygro, GeneScript). Stable transfectants were selected on medium containing neomycin and hygromycin B, and clone 293-OR2AT4-Golf-clone#2 was obtained by limiting dilution. […] Replicates of the reactions for the target and housekeeping genes, which were performed simultaneously for each template cDNA analysed, were included in triplicate. […] Data normalisation was calculated by means of the formula [Luc/Renilla(N)-Luc/Renilla(lowest)]/[Luc/Renilla(highest)-Luc/Renilla(lowest)]. […] Means were calculated using three replicates per condition, n=3. […] Statistical significance was determined using Student's t test (*p<0.05 and **p<0.001, with respect to control). […] The anti proliferative effect of the aptamers on the K562 cell line was evaluated in a colorimetric proliferation assay based on the reduction of tetrazolium salts (XTT). […]

OR2AT4 [2] = target: T1, OR2AT4; set-up: host or cells: keratinocytes; settings: cited from earlier work
human hair follicles = settings: ex vivo; cited from earlier work
[3] = test system: HaCaT-OR2AT4-Myc-DDK transfectants; assay: XTT cell proliferation assay in HaCaT-OR2AT4-Myc-DDK transfectants; assay type: cell-based, human; settings: 250 µM, days 1, 3 and 5, compared to vehicle (Control)
telogen effluvium = settings: solution containing 1% Sandalore applied for 24 weeks, 60 patients with telogen effluvium; cited from earlier work

In the case of `CC1=CCC(CCC(C)C(C)O)C1(C)C` (stereo not shown) [Sandalore, sandal pentanol], the “cAMP production (normalised luciferase activity)” value (OR2AT4 [1]) is given as “activated cAMP production”, the “activation of the OR2AT4 receptor expressed in keratinocytes” value (OR2AT4 [2]) is given as “capable of activating the OR2AT4 receptor” and the apoptosis (human hair follicles) is given as “reducing apoptosis”. The hair growth (human hair follicles) was “promotes hair growth”, the “production of the growth factor IGF-1” value (human hair follicles) was “increasing the production” and the cell proliferation [3] was “significant proliferative response”. For the same compound, the “degree of hair loss, hair volume, terminal/vellous hair ratio, anagen/catagen-telogen ratio, patient's self-esteem” value (telogen effluvium) was “improvement”.
For `CC1=CCC(CCC(C)CO)C1(C)C` (stereo not shown) [Brahmanol, sandal cyclopentane], the “cAMP production (normalised luciferase activity)” value (OR2AT4 [1]) is listed as “activated cAMP production”, the “activation of the OR2AT4 receptor expressed in keratinocytes” value (OR2AT4 [2]) is listed as “capable of activating the OR2AT4 receptor” and the cell proliferation [3] is listed as “significant proliferative response”.
